Measurements reported in patent publication US20200245616A1, “A Disinfectant Composition with Extended Antimicrobial Effects” (Siamons International Inc., priority 2017, published 2020).

These molecules were tested on Trichophyton mentagrophytes ATCC 9533 (assay: AOAC Official Method 961.02 Germicidal Spray Method, fungal conidia on glass carriers). Conditions: CMC + QAH, QAH 0.010%; 10 min contact.
Format: cell-based
Excerpt: (§1) In this method, a series of glass slides (“carriers”) were inoculated with a representative test organism and the carriers were dried under ambient conditions. The dried organisms on the surface of the carrier were then sequentially treated with the composition of the present disclosure in the form of a spray product and were exposed for a pre-determined exposure time. After exposure, the carriers were sequentially transferred to a liquid subculture medium specifically selected to neutralize the composition of the present disclosure and to recover any surviving test organism. The carriers were incubated and visually examined for the presence or absence of growth. […] Required organisms for a disinfection claim include but are not limited to Staphylococcus aureus, Salmonella choleraesuis and Pseudomonas aeruginosa.
(§2) The conidiospore suspension was macerated in a tissue grinder. The suspension was filtered through sterile cotton to remove the hyphae and hyphal fragments.
(§3) Vortex-mixed the inoculum periodically during inoculation of the carriers. • Immediately spread the inoculum uniformly over the majority of the carrier surface using a sterile loop. […] High volume screening studies were conducted in some cases where only 4 organism-inoculated carriers were treated at specified concentrations of CTAB. Once all of the carriers had been inoculated, the carriers were placed in an incubator at 37° C. for 40 minutes until completely dry.
(§4) • After drying, each carrier was sprayed with the respective disinfection formulae 10 times in 10 seconds at a distance of 30 cm. • Timed the treatment interval. Ten (10) minutes after each carrier had been exposed to the disinfectant, the excess liquid was removed and the carriers were transferred in a sequentially timed fashion into the culture tubes containing 20 ml neutralization broth (Letheen Broth with 0.07% Lecithin /0.5% Tween 80) to neutralize the disinfectant. • After the carriers were deposited in the respective culture tubes, the tubes were recapped and the cultures were thoroughly resuspended. • Incubated all neutralization tubes at 28 ±1° C. for 14 days. • After 14 days, the cultures within the tubes were examined for growth. The percentage of the treated carriers showing growth was recorded.

Row | SMILES | Trichophyton mentagrophytes Growth Rate [%]
1 | CC(C)(C)CC(C)(C)c1ccc(OCCOCC[N+](C)(C)Cc2ccccc2)cc1 [BZT, Benzethonium chloride] | 0

Same assay, conditions: CMC + QAH, QAH 0.100%; 10 min contact

Row | SMILES | Trichophyton mentagrophytes Growth Rate [%]
2 | CC(C)(C)CC(C)(C)c1ccc(OCCOCC[N+](C)(C)Cc2ccccc2)cc1 [BZT, Benzethonium chloride] | 0

Same assay, conditions: CMC + QAH, QAH 1.000%; 10 min contact

Row | SMILES | Trichophyton mentagrophytes Growth Rate [%]
3 | CC(C)(C)CC(C)(C)c1ccc(OCCOCC[N+](C)(C)Cc2ccccc2)cc1 [BZT, Benzethonium chloride] | 0

Same assay, conditions: Water + QAH, QAH 0.010%; 10 min contact

Row | SMILES | Trichophyton mentagrophytes Growth Rate [%]
4 | CC(C)(C)CC(C)(C)c1ccc(OCCOCC[N+](C)(C)Cc2ccccc2)cc1 [BZT, Benzethonium chloride] | 0

Same assay, conditions: Water + QAH, QAH 0.100%; 10 min contact

Row | SMILES | Trichophyton mentagrophytes Growth Rate [%]
5 | CC(C)(C)CC(C)(C)c1ccc(OCCOCC[N+](C)(C)Cc2ccccc2)cc1 [BZT, Benzethonium chloride] | 0

Same assay, conditions: Water + QAH, QAH 1.000%; 10 min contact

Row | SMILES | Trichophyton mentagrophytes Growth Rate [%]
6 | CC(C)(C)CC(C)(C)c1ccc(OCCOCC[N+](C)(C)Cc2ccccc2)cc1 [BZT, Benzethonium chloride] | 0

Each molecule was assayed on Aspergillus niger ATCC 6275 in the same assay as above. Conditions: CMC + QAH, QAH 0.010%; 10 min contact.
Format: cell-based
Excerpt: as §1, §2, §3, §4

Row | SMILES | Aspergillus niger Growth Rate [%]
7 | CC(C)(C)CC(C)(C)c1ccc(OCCOCC[N+](C)(C)Cc2ccccc2)cc1 [BZT, Benzethonium chloride] | 50

Same assay, conditions: CMC + QAH, QAH 0.100%; 10 min contact

Row | SMILES | Aspergillus niger Growth Rate [%]
8 | CC(C)(C)CC(C)(C)c1ccc(OCCOCC[N+](C)(C)Cc2ccccc2)cc1 [BZT, Benzethonium chloride] | 0

Same assay, conditions: CMC + QAH, QAH 1.000%; 10 min contact

Row | SMILES | Aspergillus niger Growth Rate [%]
9 | CC(C)(C)CC(C)(C)c1ccc(OCCOCC[N+](C)(C)Cc2ccccc2)cc1 [BZT, Benzethonium chloride] | 0

What follows are molecules tested on Penicillium variable ATCC 32333 in the same assay as above. Conditions: CMC + QAH, QAH 0.010%; 10 min contact.
Format: cell-based
Excerpt: as §1, §2, §3, §4

Row | SMILES | Penicillium variable Growth Rate [%]
10 | CC(C)(C)CC(C)(C)c1ccc(OCCOCC[N+](C)(C)Cc2ccccc2)cc1 [BZT, Benzethonium chloride] | 0

Same assay, conditions: CMC + QAH, QAH 0.100%; 10 min contact

Row | SMILES | Penicillium variable Growth Rate [%]
11 | CC(C)(C)CC(C)(C)c1ccc(OCCOCC[N+](C)(C)Cc2ccccc2)cc1 [BZT, Benzethonium chloride] | 0

Same assay, conditions: CMC + QAH, QAH 1.000%; 10 min contact

Row | SMILES | Penicillium variable Growth Rate [%]
12 | CC(C)(C)CC(C)(C)c1ccc(OCCOCC[N+](C)(C)Cc2ccccc2)cc1 [BZT, Benzethonium chloride] | 0

Same assay, conditions: Water + QAH, QAH 0.010%; 10 min contact

Row | SMILES | Penicillium variable Growth Rate [%]
13 | CC(C)(C)CC(C)(C)c1ccc(OCCOCC[N+](C)(C)Cc2ccccc2)cc1 [BZT, Benzethonium chloride] | 0

Same assay, conditions: Water + QAH, QAH 0.100%; 10 min contact

Row | SMILES | Penicillium variable Growth Rate [%]
14 | CC(C)(C)CC(C)(C)c1ccc(OCCOCC[N+](C)(C)Cc2ccccc2)cc1 [BZT, Benzethonium chloride] | 0

Same assay, conditions: Water + QAH, QAH 1.000%; 10 min contact

Row | SMILES | Penicillium variable Growth Rate [%]
15 | CC(C)(C)CC(C)(C)c1ccc(OCCOCC[N+](C)(C)Cc2ccccc2)cc1 [BZT, Benzethonium chloride] | 0

What follows are molecules tested on Pseudomonas aeruginosa ATCC 15442 (assay: AOAC Official Method 961.02 Germicidal Spray Method, bacteria on glass carriers). Conditions: CMC + QAH, QAH 0.010%; 10 min contact.
Format: cell-based
Excerpt: as §1
(§5) Method Adapted to the Preparation of Bacteria Cultures from −80° C. Freshly Recovered Stock. […] Added 10 μL of the thawed stock to a tube containing 10 mL synthetic broth and then vortexed to mix. Discarded the rest of cryovial stock. • Incubated the tube at 36 ±1° C. for 24 hours (h). Briefly vortexed the 24 h culture prior to transfer. For this final subculture step, inoculated two 20×150 mm tubes containing 10 mL synthetic broth with […] of the 24 h synthetic broth culture. • Incubated 48 h at 36±1° C. Using a Vortex-style mixer, mixed synthetic broth test cultures 3-4 seconds and let stand 10 minutes at room temperature before continuing. Removed the upper portion of each culture, leaving behind any debris or clumps, and transferred to a sterile tube. Titrated the culture by plating on synthetic agar plates, and diluted to 5×10^8 Colony Forming Units (CFU) per mL.
(§6) High volume screening studies were conducted in some cases where only 4 organism-inoculated carriers were treated at specified concentrations of CTAB. Vortex-mixed the inoculum periodically during inoculation of the carriers. • Immediately spread the inoculum uniformly over the majority of the carrier surface using a sterile loop. […] Covered dish immediately and repeated operation until 64 carriers had been prepared for the test. Once all of the carriers had been inoculated, placed in incubator at 37° C. for 40 minutes until dry.
(§7) • After the test organisms were dried on the surface of the carrier, each carrier was sprayed with the respective disinfection formulae 10 times in 10 seconds at a distance of 30 cm. • Treatment interval was timed. Ten (10) minutes after each carrier had been sprayed by the disinfectant, the excess liquid was removed and the carriers were transferred in a sequentially timed fashion into the culture tubes containing 20 ml neutralizer (Letheen Broth with 0.07% Lecithin/0.5% Tween 80/0.1% Sodium Thiosulfate) to neutralize the disinfectant. […] The percentage of the treated carriers showing growth after 48 hours was recorded.

Row | SMILES | Pseudomonas aeruginosa Growth Rate [%]
16 | CC(C)(C)CC(C)(C)c1ccc(OCCOCC[N+](C)(C)Cc2ccccc2)cc1 [BZT, Benzethonium chloride] | 0

Same assay, conditions: CMC + QAH, QAH 0.100%; 10 min contact

Row | SMILES | Pseudomonas aeruginosa Growth Rate [%]
17 | CC(C)(C)CC(C)(C)c1ccc(OCCOCC[N+](C)(C)Cc2ccccc2)cc1 [BZT, Benzethonium chloride] | 0

Same assay, conditions: CMC + QAH, QAH 1.000%; 10 min contact

Row | SMILES | Pseudomonas aeruginosa Growth Rate [%]
18 | CC(C)(C)CC(C)(C)c1ccc(OCCOCC[N+](C)(C)Cc2ccccc2)cc1 [BZT, Benzethonium chloride] | 0

Same assay, conditions: Water + QAH, QAH 0.010%; 10 min contact

Row | SMILES | Pseudomonas aeruginosa Growth Rate [%]
19 | CC(C)(C)CC(C)(C)c1ccc(OCCOCC[N+](C)(C)Cc2ccccc2)cc1 [BZT, Benzethonium chloride] | 100

Same assay, conditions: Water + QAH, QAH 0.100%; 10 min contact

Row | SMILES | Pseudomonas aeruginosa Growth Rate [%]
20 | CC(C)(C)CC(C)(C)c1ccc(OCCOCC[N+](C)(C)Cc2ccccc2)cc1 [BZT, Benzethonium chloride] | 100

Same assay, conditions: Water + QAH, QAH 1.000%; 10 min contact

Row | SMILES | Pseudomonas aeruginosa Growth Rate [%]
21 | CC(C)(C)CC(C)(C)c1ccc(OCCOCC[N+](C)(C)Cc2ccccc2)cc1 [BZT, Benzethonium chloride] | 100

Each molecule was assayed on Staphylococcus aureus ATCC 6538 in the same assay as above. Conditions: 1.0% QAH.
Format: cell-based
Excerpt: as §1, §5, §6, §7

Row | SMILES | killing Staphylococcus aureus
22 | CCCC[N+](CCCC)(CCCC)Cc1ccccc1.[Cl-] [BTBAC, Benzyltri-n-butylammonium chloride] | incapable of killing
23 | CC[N+](CC)(CC)Cc1ccccc1.[Cl-] [BTEAC, Benzyltriethylammonium chloride] | incapable of killing

Same assay, conditions: CMC + QAH, QAH 0.010%; 10 min contact

Row | SMILES | Staphylococcus aureus Growth Rate [%]
24 | CCCC[N+](CCCC)(CCCC)Cc1ccccc1.[Cl-] [BTBAC, Benzyltri-n-butylammonium chloride] | 100
25 | CC(C)(C)CC(C)(C)c1ccc(OCCOCC[N+](C)(C)Cc2ccccc2)cc1 [BZT, Benzethonium chloride] | 0
26 | CC[N+](CC)(CC)Cc1ccccc1.[Cl-] [BTEAC, Benzyltriethylammonium chloride] | 100

Same assay, conditions: CMC + QAH, QAH 0.100%; 10 min contact

Row | SMILES | Staphylococcus aureus Growth Rate [%]
27 | CCCC[N+](CCCC)(CCCC)Cc1ccccc1.[Cl-] [BTBAC, Benzyltri-n-butylammonium chloride] | 100
28 | CC(C)(C)CC(C)(C)c1ccc(OCCOCC[N+](C)(C)Cc2ccccc2)cc1 [BZT, Benzethonium chloride] | 0
29 | CC[N+](CC)(CC)Cc1ccccc1.[Cl-] [BTEAC, Benzyltriethylammonium chloride] | 100

Same assay, conditions: CMC + QAH, QAH 1.000%; 10 min contact

Row | SMILES | Staphylococcus aureus Growth Rate [%]
30 | CCCC[N+](CCCC)(CCCC)Cc1ccccc1.[Cl-] [BTBAC, Benzyltri-n-butylammonium chloride] | 100
31 | CC(C)(C)CC(C)(C)c1ccc(OCCOCC[N+](C)(C)Cc2ccccc2)cc1 [BZT, Benzethonium chloride] | 100
32 | CC[N+](CC)(CC)Cc1ccccc1.[Cl-] [BTEAC, Benzyltriethylammonium chloride] | 75

Same assay, conditions: Water + QAH, QAH 0.010%; 10 min contact

Row | SMILES | Staphylococcus aureus Growth Rate [%]
33 | CCCC[N+](CCCC)(CCCC)Cc1ccccc1.[Cl-] [BTBAC, Benzyltri-n-butylammonium chloride] | 100
34 | CC(C)(C)CC(C)(C)c1ccc(OCCOCC[N+](C)(C)Cc2ccccc2)cc1 [BZT, Benzethonium chloride] | 100
35 | CC[N+](CC)(CC)Cc1ccccc1.[Cl-] [BTEAC, Benzyltriethylammonium chloride] | 100

Same assay, conditions: Water + QAH, QAH 0.100%; 10 min contact

Row | SMILES | Staphylococcus aureus Growth Rate [%]
36 | CCCC[N+](CCCC)(CCCC)Cc1ccccc1.[Cl-] [BTBAC, Benzyltri-n-butylammonium chloride] | 100
37 | CC(C)(C)CC(C)(C)c1ccc(OCCOCC[N+](C)(C)Cc2ccccc2)cc1 [BZT, Benzethonium chloride] | 25
38 | CC[N+](CC)(CC)Cc1ccccc1.[Cl-] [BTEAC, Benzyltriethylammonium chloride] | 100

Same assay, conditions: Water + QAH, QAH 1.000%; 10 min contact

Row | SMILES | Staphylococcus aureus Growth Rate [%]
39 | CCCC[N+](CCCC)(CCCC)Cc1ccccc1.[Cl-] [BTBAC, Benzyltri-n-butylammonium chloride] | 100
40 | CC(C)(C)CC(C)(C)c1ccc(OCCOCC[N+](C)(C)Cc2ccccc2)cc1 [BZT, Benzethonium chloride] | 0
41 | CC[N+](CC)(CC)Cc1ccccc1.[Cl-] [BTEAC, Benzyltriethylammonium chloride] | 100

The molecules below were run on select bacteria and fungal organisms (assay: Germicidal spray disinfection, summary over the tested organisms). Conditions: 0.01% QAH in CMC; 10-minute contact time.
Format: cell-based
Procedure: All experiments were conducted according to the protocol outlined in AOAC Official Method 961.02 (Germicidal Spray Method), which is a carrier-based method used to evaluate disinfection efficacy of aerosol/pump-based spray products and liquid products for registration with regulatory agencies such as the U.S. EPA and Health Canada.
It was expected that if the CTAB was replaced by QAH's of similar structure that the disinfection of selected bacteria and fungal organisms would be similarly achieved. […] In the case of bacteria testing, the experimental procedure was as outlined in Example 1 for disinfection of bacterial cultures. In the case of fungal organisms, the experimental procedure was as outlined in Example 1 for the preparation of fungal cultures.

Row | SMILES | effectiveness against the target organisms
42 | CC(C)(C)CC(C)(C)c1ccc(OCCOCC[N+](C)(C)Cc2ccccc2)cc1 [BZT, Benzethonium chloride] | remarkable effectiveness
